In patent US10668122B2, “Extract of Toona sinensis from supercritical fluid extraction for treating diabetes and metabolic disease, the preparation method and the use thereof” (Metal Industries Research & Development Centre, priority 2009, dated 2020):
Marks after values point to notes of the source that are not given here.

Experiments:
[1] = test system: type 2 diabetic mouse model; assay: Anti-diabetic effect in vivo, type 2 diabetic mouse model (high-fat diet plus STZ injection); set-up: species or system C57BL/6J mice; conditions: DM + rosiglitazone 150 μg/kg/day, mean ± SD
Method: Eight-week-old male C57BL/6J mice were obtained from BioLASCO Technology (Charles River Taiwan Ltd.). All of the mice received standard animal care under supervision of the Institutional Animal Care and Use Committee of Kaohsiung Medical University, Taiwan. The mice were caged in an air-conditioned animal facility at 23° C. on a 12-h light/dark cycle and were maintained with free access to water and food. Animals were fed either a normal chow diet consisting (as a percentage of total kcal) of 11% fat, 65% carbohydrate, and 24% protein (Maintenance diet 1320, Altromin Spezialfutter GmbH & Co. KG, Germany) or a high-fat diet consisting of 45% fat, 35% carbohydrate, and 20% protein (D12451, Research Diets, Inc., New Brunswick, N.J., USA). After two weeks on either diet, mice were divided into four groups: (i) control (n=7); (ii) high-fat-diet mice with STZ injection (DM; n=5); (iii) high-fat-diet mice with STZ injection plus TS-SCF treatment (DM+TS-SCF; n=6); and (iv) high-fat-diet mice with STZ injection plus rosiglitazone treatment (DM+Rosig; n=4). The mice in groups ii-iv were injected with STZ (45 mg/kg), and both STZ-injected and non-injected animals were kept on their original diets (chow or high-fat) for the duration of the study. TS-SCF (150 mg/kg/day) and rosiglitazone (150 μg/kg/day) treatments via gastric gavage were begun two days after the STZ injection.
Throughout the experiment, body weight and blood glucose from the tail tip were monitored weekly. Blood glucose was detected by the ACCU-CHEK blood glucose meter (Roche Diagnostics, Taipei, Taiwan). Animals were sacrificed after eight weeks of STZ injection and were euthanized by intraperitoneal injection with the anesthetic Zoletil (10 mg/kg) (Virbac, Carros, France). Blood samples were collected from the heart at the time of sacrifice for the measurement of biochemistry data using a Roche Cobas Integra 400 Chemistry Analyzer (Roche Diagnostics, Taipei, Taiwan).
Insulin from plasma were detected by ELISA kits (Crystal Chem, Inc. Downers Grove, USA). The homeostasis model assessment of insulin resistance (HOMA-IR) was calculated using the following formula: fasting blood glucose (mg/dL)×fasting insulin (μU/mL)/405.

3T3-L1 adipocytes = assay: In vitro model for anti-diabetic effect: 24-hour glucose consumption from culture medium of 3T3-L1 adipocytes; type: cell-based; conditions: starting glucose 300 mg/dL
Method: Adipose tissue is one of the major sites of postprandial glucose uptake (Watson et al., 2007). To speed up the screening of novel anti-diabetic candidate materials from natural products, an in vitro model was established by comparing the 24-hour glucose consumption from the culture medium of 3T3-L1 adipocytes.
The same amount (5×10^5 cells) of 3T3-L1 preadipocytes (BCRC #60159; Bioresource Collection and Research Center, Taiwan) was seeded and cultured in normal glucose (100 mg/dL) DMEM supplemented with 10% FBS, 100 U/mL of penicillin, and 100 μg/mL of streptomycin in a humidified atmosphere of 95% air and 5% CO2 at 37° C. When the cell density reached 100% confluence, 3T3-L1 preadipocytes were induced to differentiate by treating the culture with 450 mg/dL D-glucose, 0.32 μM insulin, 0.5 mM 3-isobutyl-1-methylxanthine and 1 μM dexamethasone for two days. Then, the culture medium of the differentiated adipocytes was changed to DMEM containing 300 mg/dL D-glucose with or without the administration of TSL extracts. After 24 hours, the anti-diabetic activity was determined by measuring the medium glucose concentration using a Roche Cobas Integra 400 Chemistry Analyzer (Roche Diagnostics, Taipei, Taiwan). The coefficient of variation (CV) of the analyzer was 0.62-0.92% within-run and 1.1-1.2% between days. To confirm whether the in vitro model was sufficient to measure the glucose-lowering effect, insulin and rosiglitazone were used as positive controls.
The methods of in vitro model for determination of anti-diabetic effect are the same as the contents described in EXAMPLE 3. To obtain the high to mid-high polar components of TSL, three different extraction methods were used to produce the following extracts, which were previously reported (Liao et al., 2007; Hsieh et al., 2005; Yang et al., 2003). TSLs were (i) extracted by reverse-osmosis of water (1:4 w/v) by boiling for 30 min and then cooling down without further boiling for two hours at room temperature (Liao et al., 2007); (ii) extracted by soaking in 100° C. boiled water (1:10 w/v) three times, each time for 30 min (Hsieh et al., 2005); and (iii) extracted by boiling in 50% v/v alcohol/water for three hours (Yang et al., 2003). Next, the leaves were removed and the remaining liquids were filtered through filter paper (Advantec, Tokyo, Japan). Afterward, the filtrated solutions were concentrated using an evaporator (rotary vacuum evaporator, vv2000; Heidolph, Schwabach, Germany) under reduced pressure and three crude extracts were obtained, which were named TS-WB (i), TS-WS (ii), and TS-E (iii); the yield of each extract was 6.03%, 5.13%, and 8.36%, respectively.

[2] = insulin 3.2×10^−7 to 3.2×10^−5 M

| Compound | Fasting glucose ([1]; at sacrifice eight weeks after STZ) | Body weight gain [1] [g] | HDL-C [1] [mg/dL] | HOMA-IR [1] | Insulin (fasting plasma) [1] [ng/mL] | LDL-C [1] [mg/dL] | T-CHO (total cholesterol) [1] [mg/dL] | Triglycerol (plasma) [1] | ALT ([1]; plasma) [U/L] | Creatinine ([1]; plasma) | decrease of the glucose concentration in the media (3T3-L1 adipocytes; rosiglitazone 12.5 to 50 μg/mL) [mg/dL] | percentage of glucose consumption (3T3-L1 adipocytes; rosiglitazone 12.5 to 50 μg/mL) | decrease of the glucose concentration in the media (3T3-L1 adipocytes; [2]) [mg/dL] | percentage of glucose consumption (3T3-L1 adipocytes; [2]) |
| --- | --- | --- | --- | --- | --- | --- | --- | --- | --- | --- | --- | --- | --- | --- |
| CN(CCOc1ccc(CC2SC(=O)NC2=O)cc1)c1ccccn1 (centres unmarked) [rosiglitazone] | 205.00 ± 84.87^b mg/dL | 8.10 ± 1.95 | 126.03 ± 32.17 | 14.29 ± 4.60^b | 0.98 ± 0.77 | 9.81 ± 8.29 | 137.65 ± 32.62 | 64.94 ± 4.82^d mg/dL | 62.00 ± 27.00 | 0.54 ± 0.18^e mg/dL | 50 to 80 | 16-27% | – | – |
| insulin | – | – | – | – | – | – | – | – | – | – | – | – | 46 to 57 | 15-18% |
